Reference: article PMC13376213, “Systematic discovery of motif-based interactions of the auxiliary domains of USP family deubiquitinases” (Nature Communications, 2026)
Changes are numbered by the printed parent chain. Like-named read-outs stand apart in the source and are kept apart here. Peptide text beside a SMILES is read from it. * marks the point of attachment. FITC = O=C1OC2(c3ccc(O)cc3Oc3cc(O)ccc32)c2ccc(NC(=S)*)cc21

How the values were obtained:
[1] = biological target: T1, USP33 DUSP2 N835A (Homo sapiens, UniProt Q8TEY7, N835A); test: FP-monitored affinity measurements, USP33 DUSP2 single mutant; assay type: binding
T1 construct: USP33_DUSP2; Q8TEY7; DUSP2; 806; 921; 6xHis-GST (N, cleaved yes); made in house; host or cells: Escherichia coli BL21-Gold (DE3)
T1 sequence (Q8TEY7 806-921 N835A): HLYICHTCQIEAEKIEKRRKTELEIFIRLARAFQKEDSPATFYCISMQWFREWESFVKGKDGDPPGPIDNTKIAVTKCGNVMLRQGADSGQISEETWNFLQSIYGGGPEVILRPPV
Experimental: (§1) Proteins were expressed in Escherichia coli (E.coli) BL21-Gold (DE3) bacteria. The cDNAs encoding N-terminal 6-histidine-glutathione S-transferase tagged (6xHis-GST), 6xHis-tagged or GST-tagged protein domains in pETM33, pETM11, pGEX6P1 expression vectors respectively, were obtained from Genescript or kindly provided by MRC-PPU (Suppl. Data 1) The bacteria were transformed with the plasmid and grew at 37 °C in 2YT (5 g/L NaCl, 16 g/L tryptone and 10 g/L yeast extract) supplemented with Kanamycin (30 μg/mL) until reaching an OD600 of 0.7. Protein expression was induced with 0.3 mM isopropyl β-D-1 thiogalactopyranoside (IPTG) for 18 h at 18 °C while shaking. For zinc-finger domains, 50 μM of ZnSO4 was added during expression. […] For fluorescence polarization experiments, the proteins were not eluted from the beads, and the 6xHis-GST tag was cleaved overnight on GSH Sepharose beads at 4 °C while shaking with PreScission Protease in cleavage buffer (50 mM Tris pH 7.5, 150 mM NaCl, 1 mM DTT). […] The purity and size of the proteins were analyzed by SDS-PAGE electrophoresis.
(§2) The measurements were performed at room temperature in a non-binding black half area 96-well plate (Corning) with a total volume of 50 μL per well. […] The data were analyzed using GraphPad Prism version 9.2.0 for MacOS (GraphPad Software, San Diego, California USA, www.graphpad.com). […]

[2] = biological target: T2, USP33 DUSP2 domain (Homo sapiens, UniProt Q8TEY7); test: FP-monitored affinity measurements, USP33 DUSP2; assay type: binding; conditions: USP33_DUSP2; direct FP titration (saturation) of the FITC-labelled peptide; read-out: KD
T2 construct: USP33_DUSP2; Q8TEY7; DUSP2; 806; 921; 6xHis-GST (N, cleaved yes); made in house; host or cells: Escherichia coli BL21-Gold (DE3)
T2 sequence (Q8TEY7 with tags, fused parts or gaps): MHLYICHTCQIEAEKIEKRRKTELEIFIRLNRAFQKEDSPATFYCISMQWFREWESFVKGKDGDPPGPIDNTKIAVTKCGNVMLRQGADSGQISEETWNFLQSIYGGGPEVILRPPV
Experimental: Proteins were expressed in Escherichia coli (E.coli) BL21-Gold (DE3) bacteria. The cDNAs encoding N-terminal 6-histidine-glutathione S-transferase tagged (6xHis-GST), 6xHis-tagged or GST-tagged protein domains in pETM33, pETM11, pGEX6P1 expression vectors respectively, were obtained from Genescript or kindly provided by MRC-PPU (Suppl. Data 1) The bacteria were transformed with the plasmid and grew at 37 °C in 2YT (5 g/L NaCl, 16 g/L tryptone and 10 g/L yeast extract) supplemented with Kanamycin (30 μg/mL) until reaching an OD600 of 0.7. Protein expression was induced with 0.3 mM isopropyl β-D-1 thiogalactopyranoside (IPTG) for 18 h at 18 °C while shaking. For zinc-finger domains, 50 μM of ZnSO4 was added during expression. The bacterial cultures were pelleted for 15 minutes at 4000 x g at 4 °C and stored at −20 °C until purification. The pellets were resuspended in lysis buffer (1× phosphate-buffered saline (PBS), 0.5 % Triton-X, 5 mM MgCl2, 10 μg/mL lysozyme, cOmplete^TM EDTA-free protease inhibitor cocktail (Roche), 10 μg/mL DNAseI) and incubated for 1 h shaking at 4 °C. […] The supernatant was incubated with glutathione (GSH) Sepharose (Cytiva) or Ni2+ Sepharose (Cytiva) for 1 h at 4 °C while shaking. The beads with the bound protein were washed with 1x PBS and eluted with 10 mM reduced glutathione in 50 mM Tris pH 8.0. For fluorescence polarization experiments, the proteins were not eluted from the beads, and the 6xHis-GST tag was cleaved overnight on GSH Sepharose beads at 4 °C while shaking with PreScission Protease in cleavage buffer (50 mM Tris pH 7.5, 150 mM NaCl, 1 mM DTT). The sample containing the cleaved domain was separated from the tag and protease and buffer-exchanged to 50 mM sodium phosphate buffer pH 7.4 with 1 mM DTT using a PD-10 desalting column (Cytiva). The purity and size of the proteins were analyzed by SDS-PAGE electrophoresis.
The measurements were performed at room temperature in a non-binding black half area 96-well plate (Corning) with a total volume of 50 μL per well. Peptides were obtained from GeneCust (France) with >95% purity. FITC-labeled peptides (N-terminally FITC-labeled without spacer and C-terminally amidated) were dissolved in dimethyl sulfoxide (DMSO), and unlabeled peptides (N-terminally acetylated and C-terminally amidated) were dissolved in 50 mM phosphate buffer pH 7.4. Saturation measurements were performed using a serial dilution of the protein domains in phosphate buffer (25 μL) and the addition of 10 nM FITC-labeled peptide (in phosphate buffer supplemented with 2 mM DTT) (25 μL). […] All measurements were performed in three technical replicates. The data were analyzed using GraphPad Prism version 9.2.0 for MacOS (GraphPad Software, San Diego, California USA, www.graphpad.com). The saturation curves were fitted to the quadratic equation, and the displacement curves were fitted to a sigmoidal dose-response equation as described previously.

[3] = biological target: T3, USP33 DUSP2 K863E-K865E (Homo sapiens, UniProt Q8TEY7, K863E/K865E); test: FP-monitored affinity measurements, USP33 DUSP2 double mutant; assay type: binding
T3 construct: USP33_DUSP2; Q8TEY7; DUSP2; 806; 921; 6xHis-GST (N, cleaved yes); made in house; host or cells: Escherichia coli BL21-Gold (DE3)
T3 sequence (Q8TEY7 806-921 K863E/K865E): T1 sequence (Q8TEY7 806-921 N835A) with A30N, K58E, K60E
Experimental: as §1, §2

[4] = biological target: T4, USP20 zf-UBP domain (Homo sapiens, UniProt Q9Y2K6); test: Peptide SPOT array, USP20 zf-UBP; assay type: binding; conditions: array of 120 peptides probed with GST-tagged zf-UBP domains of USP20 and USP33
T4 construct: USP20_UBP; Q9Y2K6; zf-UBP; 99; 6xHis-GST (N, cleaved yes); made in house; host or cells: Escherichia coli BL21-Gold (DE3)
Experimental: Peptides were synthesized on cellulose membranes with standard Fluoroenylmethylox-ycarbonyl (Fmoc) chemistry using a Multipep automated synthesizer at INTAVIS (Tübingen, Germany) or ordered from JPT (PepSpots). […] The images were analyzed in Fiji (ImageJ2 version 2.9.0).

[5] = system: FLAG-USP33; test: IP-MS of FLAG-USP33 and variants vs empty vector; assay type: cell-based, human
Experimental: For transfection, 1x10^6 HEK293 cells were seeded in 10 cm dishes with DMEM, 10% FBS, 1% L-G (without antibiotic) medium, incubated at 37 °C, with 5 % CO2 for 24 h. Cells were transfected with a transfection mix containing […] of Opti-MEM (Thermo Fisher Scientific), 20 μL of PEI stock (1 mg/mL) and […] of the desired cDNA. For co-transfection, 2.5 μg of DNA of each plasmid was used. The mix was vortexed for 15 s and incubated at room temperature for 15–20 min. The transfection mix was added to the dish and gently mixed. Plates were incubated at 37 °C for 36–48 h before harvesting. For USP33 constructs, 5 μM Bortezomib (proteasome inhibitor) was added 4 hours before harvesting the cells.
FLAG fusion proteins were immunoprecipitated from HEK293 cells transfected with plasmids encoding the protein of interest using the anti-FLAG M2 affinity gel from Sigma-Aldrich. Cell pellets were lysed with 100–200 μL/per dish lysis buffer (Pierce RIPA buffer, 1X protease inhibitor (Roche), 50 unit/μL of Benzonase Nuclease) rotating at 4 °C for 30–45 min. […] The cell lysate was clarified by centrifugation at 17,000 x g, at 4 °C for 12 min, and the supernatant was transferred to a clean, pre-chilled low-binding Eppendorf tube. […] The IP samples were centrifuged at 6500 x g at 4 °C for 30 s. The supernatant containing the unbound proteins was transferred to a clean tube. The resin was washed three times with 500 μL of TBS, centrifuged at 6500 x g at 4 °C for 30 s. The bound FLAG fusion protein was eluted with 100 μL of 150 ng/μL 3X FLAG peptide (Sigma) in TBS and incubated in the cold room for 1 h or overnight. The tube was centrifuged at 6500 x g at 4 °C for 30 s; the eluted proteins were transferred to a clean tube. The eluted proteins were prepared for analysis by western blot or Mass Spectrometry.
Immunoprecipitation (IP) was carried out as described above; four technical replicates of each IP condition were performed, and the empty vector was used as a negative control. The eluted protein was processed following the Strap-micro protocol (Protifi). The IP elution containing 1–100 μg protein was 1:1 mixed with 2X lysis buffer (10% SDS, 100 mM TEAB pH 8.5). […] Samples were vortexed, mixed with 165 μL of 100 mM TEAB in 90% methanol, and passed through an S-Trap micro column at 4000 g for 30 s to trap the proteins. The column was washed with 150 μL of 100 mM TEAB in 90% methanol (at 4,000 x g for 30 seconds) three times. The S-Trap column was centrifuged again and transferred to a clean 2 mL tube for digestion with 20 μL of digestion buffer (1 μg trypsin per 10 μg sample in 50 mM TEAB), at 37 °C overnight in a thermomixer without shaking. The digested peptides were eluted with […] of 50 mM TEAB in water, […] of 0.2 % formic acid in water, and […] of 50 % acetonitrile in water, centrifuging at 4000 x g for 1 min each time. The three elutions were pooled in a low-binding tube, placed on dry ice until frozen, dried in a SpeedVac vacuum (Thermo Scientific), and proceeded with the LCMS analysis.
Eluted peptides were resuspended in water supplemented with 0.015% dodecyl maltoside and 0.1% formic acid and were injected on a Vanquish Neo UHPLC System operating in trap and elute mode coupled to an Orbitrap Astral Mass Spectrometer (Thermo Fisher Scientific). […] Eluted peptides were analyzed using data-independent acquisition mode on the mass spectrometer.
Peptides were searched against the Uniprot Swissprot Human database (released on 02/01/2023) supplemented with the USP20 and USP33 mutants using DiaNN (v1.9.0)[62] operating in library-free mode. Data filtering and statistical analysis were carried out in Python (v3.9.0) using the packages pandas, numpy, sklearn, scipy, rpy2, Plotnine, and Plotly and R (v4.4.3) using the package limma.
Protein groups identified with a single peptide or quantified in fewer than three replicates in at least 1 condition were filtered out. […]

[6] = system: FLAG-USP20; test: IP-MS of FLAG-USP20 and variants vs empty vector; assay type: cell-based, human; conditions: IP-MS, FLAG-USP20-ΔUBP vs EV; comparison bh_2 Sample_Limma_ImpMedInt_USP20_UBP_domain/EV
Experimental: For transfection, 1x10^6 HEK293 cells were seeded in 10 cm dishes with DMEM, 10% FBS, 1% L-G (without antibiotic) medium, incubated at 37 °C, with 5 % CO2 for 24 h. Cells were transfected with a transfection mix containing 970 mL of Opti-MEM (Thermo Fisher Scientific), 20 μL of PEI stock (1 mg/mL) and 5 mg of the desired cDNA. For co-transfection, 2.5 μg of DNA of each plasmid was used. The mix was vortexed for 15 s and incubated at room temperature for 15–20 min. The transfection mix was added to the dish and gently mixed. Plates were incubated at 37 °C for 36–48 h before harvesting. For USP33 constructs, 5 μM Bortezomib (proteasome inhibitor) was added 4 hours before harvesting the cells.
FLAG fusion proteins were immunoprecipitated from HEK293 cells transfected with plasmids encoding the protein of interest using the anti-FLAG M2 affinity gel from Sigma-Aldrich. […] The cell lysate was clarified by centrifugation at 17,000 x g, at 4 °C for 12 min, and the supernatant was transferred to a clean, pre-chilled low-binding Eppendorf tube. […] The IP samples were centrifuged at 6500 x g at 4 °C for 30 s. The supernatant containing the unbound proteins was transferred to a clean tube. The resin was washed three times with 500 μL of TBS, centrifuged at 6500 x g at 4 °C for 30 s. The bound FLAG fusion protein was eluted with 100 μL of 150 ng/μL 3X FLAG peptide (Sigma) in TBS and incubated in the cold room for 1 h or overnight. The tube was centrifuged at 6500 x g at 4 °C for 30 s; the eluted proteins were transferred to a clean tube. The eluted proteins were prepared for analysis by western blot or Mass Spectrometry.
Immunoprecipitation (IP) was carried out as described above; four technical replicates of each IP condition were performed, and the empty vector was used as a negative control. The eluted protein was processed following the Strap-micro protocol (Protifi). The IP elution containing 1–100 μg protein was 1:1 mixed with 2X lysis buffer (10% SDS, 100 mM TEAB pH 8.5). […] Samples were vortexed, mixed with 165 μL of 100 mM TEAB in 90% methanol, and passed through an S-Trap micro column at 4000 g for 30 s to trap the proteins. The column was washed with 150 μL of 100 mM TEAB in 90% methanol (at 4,000 x g for 30 seconds) three times. The S-Trap column was centrifuged again and transferred to a clean 2 mL tube for digestion with 20 μL of digestion buffer (1 μg trypsin per 10 μg sample in 50 mM TEAB), at 37 °C overnight in a thermomixer without shaking. The digested peptides were eluted with 40 mL of 50 mM TEAB in water, 40 mL of 0.2 % formic acid in water, and 40 mL of 50 % acetonitrile in water, centrifuging at 4000 x g for 1 min each time. The three elutions were pooled in a low-binding tube, placed on dry ice until frozen, dried in a SpeedVac vacuum (Thermo Scientific), and proceeded with the LCMS analysis.
Protein groups identified with a single peptide or quantified in fewer than three replicates in at least 1 condition were filtered out. Protein group intensities were median normalized and missing values were imputed using a Gaussian distribution centered on the median with a downshift of 1.8 and width of 0.3 (relative to the standard deviation).

T4 sequence (Q9Y2K6 4-99): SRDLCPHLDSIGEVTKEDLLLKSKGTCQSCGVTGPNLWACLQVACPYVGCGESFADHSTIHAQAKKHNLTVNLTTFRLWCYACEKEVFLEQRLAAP

## CSCC[C@H](NC(=S)Nc1ccc2c(c1)C(=O)OC21c2ccc(O)cc2Oc2cc(O)ccc21)C(=O)N[C@@H](CC(=O)O)C(=O)N[C@@H](CC(=O)O)C(=O)N[C@@H](CC(=O)O)C(=O)N[C@@H](Cc1ccccc1)C(=O)N[C@@H](CCC(N)=O)C(=O)N[C@@H](CC(C)C)C(=O)N[C@@H](CCCNC(=N)N)C(=O)N[C@@H](CO)C(=O)N[C@@H](Cc1ccccc1)C(=O)N[C@@H](CC(=O)O)C(=O)N[C@@H](CCC(N)=O)C(=O)N[C@@H](CC(C)C)C(=O)N[C@@H](CO)C(N)=O [FITC_HIF1A] ({FITC}-MDDDFQLRSFDQLS-NH2)
[1]; USP33_DUSP2_N835A, direct FP titration (saturation) of the FITC-labelled peptide, read-out: KD
  Kd: ~353 µM
[2]
  Kd: 31.3 µM
[3]; USP33_DUSP2_K863E/K865E, direct FP titration (saturation) of the FITC-labelled peptide, read-out: KD
  Kd: ~319 µM

## TQNLEDREVLNGVQTE [PARD3B]
[4]
  binding in peptide SPOT array, USP20 versus USP33 zf-UBP: only bound to USP20

## CSCC[C@H](NC(=S)Nc1ccc2c(c1)C(=O)OC21c2ccc(O)cc2Oc2cc(O)ccc21)C(=O)N[C@@H](CC(=O)O)C(=O)N[C@@H](CC(=O)O)C(=O)N[C@@H](CC(=O)O)C(=O)N[C@@H](Cc1ccccc1)C(=O)N[C@@H](CCC(N)=O)C(=O)N[C@@H](CC(C)C)C(=O)N[C@@H](CCCNC(=N)N)C(=O)N[C@@H](CO)C(=O)N[C@@H](Cc1ccccc1)C(=O)N[C@@H](CC(=O)O)C(=O)N[C@@H](CCC(N)=O)C(=O)N[C@@H](CC(C)C)C(=O)N[C@@H](CO)C(N)=O [FITC-HIF1A568-581] ({FITC}-MDDDFQLRSFDQLS-NH2)
[1]; FP, FITC-labeled probe peptide, single mutant domain (Fig. 5F), technical triplicate, read-out: KD, USP33 DUSP2 N835A with FITC-labeled probe peptide
  Kd: > 300 µM
[3]; FP, FITC-labeled probe peptide, double mutant domain (Fig. 5F), technical triplicate, read-out: KD, USP33 DUSP2 K863E-K865E with FITC-labeled probe peptide
  Kd: > 300 µM

## ESYT2
[5]; IP-MS, FLAG-USP33 UBP mutant vs EV, comparison USP33_E86K_D90R/EV, Limma
  log2_FC: 1.582
[5]; IP-MS, FLAG-USP33 vs EV, comparison USP33_wt/EV, Limma
  log2_FC: 1.824
[5]; Table S7c USP33 MS_and_motif, bait USP33
  log2_FC: 1.824
[6]
  log2_FC: 1.764

## TMEM131L
[6]
  log2_FC: 4.636
